The text below walks through data of patent US20130018023A1, “COMPOSITIONS FOR TOPICAL ADMINISTRATION” (SOL-GEL TECHNOLOGIES LTD., priority 2010, published 2013).

Assay [1] relates to Staph epidermidis. Description: MIC determination, macrodilution method. Format: cell-based. The text has this:
(§1) Methicillin-resistant Staphylococcus aureus (ATCC 33592) Coagualse Negative Staphylococcus epidermidis (Clinical Isolate) Vancomycin-Restistant Enterococcus faecali (ATCC 115992) Escherischia coli (ATCC 25922) Candida albicans (ATCC 10231)
(§2) Muller Hinton Broth (MHB) was used in this study for all bacteria: BD Cat #211443, Lot numbers 9097650.
(§3) 1. The test organism, (bacteria or yeast) was obtained from frozen cultures. 2. Two days prior to the experiment, a portion of test bacterium from frozen culture collection was streaked and cultured on a non-selective agar plate (e.g. TSA). Plates were then incubated overnight at 37° C.±1° C. and the culture was examined for purity prior to use. […] 3. The day prior to the experiment, a portion of test organism was inoculated from the above-mentioned plate into MHB and vortexed. Incubate at 37° C.±1° C. for approximately eighteen hours. 4. For Candida albicans (ATCC 10231): The day prior to the experiment a portion of test organism was inoculated from the above-mentioned plate into Yeast/Dextrose Broth and vortexted. Bacterial MIC determination was conducted according to Kirby-Bauer macrodilution method. The bacterial/yeast density was adjusted to approximately 10^7 CFU/m; (Approx OD625 0.1±0.05). […]

Assay [2] relates to MRSA. Description: MIC determination, macrodilution method. Format: cell-based, Methicillin-resistant Staphylococcus aureus (ATCC 33592).
Excerpt: as §1, §2, §3

In assay [3] the test system is VRE. Description: MIC determination, macrodilution method. Format: cell-based, Vancomycin-Restistant Enterococcus faecali (ATCC 115992).
Excerpt: as §1, §2, §3

Assay [4] deals with C. albicans (yeast). Description: MIC determination, macrodilution method. Format: cell-based, Candida albicans (ATCC 10231).
Excerpt: as §1
(§4) Muller Hinton Agar (MHA) was used in this study for all bacteria: BD Cat #211438, Lot number 7155220. Yeast Dextrose Broth (Y/D B) was used to test C. albicans Yeast Dextrose Broth contains 10 g/L of yeast extract and 10 g/L of dextrose. Yeast Extract Cat #BD 210933, Lot number 8074851 (Expiration 2010-01-31). Dextrose Cat # BD215530 (Lot Number 6163169). Yeast Dextrose Agar (Y/D A) was used to test C. albicans Yeast Dextrose Agar contains 10 g/L of yeast extract and 10 g/L of dextrose and 17 g/L Agar. Agar Cat # BD 214010 (Lot Number 214010).
1. The test organism, (bacteria or yeast) was obtained from frozen cultures. 2. Two days prior to the experiment, a portion of test bacterium from frozen culture collection was streaked and cultured on a non-selective agar plate (e.g. TSA). Plates were then incubated overnight at 37° C.±1° C. and the culture was examined for purity prior to use. […] 3. The day prior to the experiment, a portion of test organism was inoculated from the above-mentioned plate into MHB and vortexed. Incubate at 37° C.±1° C. for approximately eighteen hours. 4. For Candida albicans (ATCC 10231): The day prior to the experiment a portion of test organism was inoculated from the above-mentioned plate into Yeast/Dextrose Broth and vortexted. Bacterial MIC determination was conducted according to Kirby-Bauer macrodilution method. The bacterial/yeast density was adjusted to approximately 10^7 CFU/m; (Approx OD625 0.1±0.05). Stock solutions of each test article or combination were made by adding each test article to MHB to give an MHB/test article mixture of the following concentrations: Benzoyl Peroxide=6% in MHB and Mupiocin=256 μg/mL in MHB.
For bacterial: Mupirocin=256 μg/mL & BP at 0.0469% in MHB For yeast: Mupirocin=256 μg/mL & BP at 0.0115% in MHB […]

Assay [5] has as its system E. Coli. Description: MIC determination, macrodilution method. Format: cell-based, Escherischia coli (ATCC 25922). The note with it: Escherichia coli, MHB, approx. 24 h at 37° C., value as mupirocin concentration, combination starts at BP 0.0469%.
Excerpt: as §1, §2, §3

For assay [6], the system named is C. albicans (yeast). Description: MBC & MFC determination, sub-culturing from MIC tubes. Format: cell-based, Candida albicans (ATCC 10231). The settings on record: Candida albicans, value as mupirocin concentration.
Excerpt: as §1, §4
(§5) 1. The test organism, (bacteria or yeast) was obtained from frozen cultures. 2. Two days prior to the experiment, a portion of test bacterium from frozen culture collection was streaked and cultured on a non-selective agar plate (e.g. TSA). Plates were then incubated overnight at 37° C.±1° C. and the culture was examined for purity prior to use. […] 3. The day prior to the experiment, a portion of test organism was inoculated from the above-mentioned plate into MHB and vortexed. Incubate at 37° C.±1° C. for approximately eighteen hours. 4. […]

For assay [7], the system named is MRSA. Description: MBC determination, sub-culturing from MIC tubes. Format: cell-based, Methicillin-resistant Staphylococcus aureus (ATCC 33592). The note with it: Staphylococcus aureus, mupirocin alone, read-out: Mupirocin MBC & MFC.
Excerpt: as §1, §4, §5

The subject of assay [8] is E. Coli. Description: MBC determination, sub-culturing from MIC tubes. Format: cell-based, Escherischia coli (ATCC 25922). The note with it: Escherichia coli, value as mupirocin concentration, read-out: Mupirocin MBC & MFC.
Excerpt: as §1, §4, §5

The subject of assay [9] is Staph organisms. Description: Cidal activity (MBC) against Staph organisms. In kind it is cell-based, Staphylococcus. The procedure:
Bacterial MBC determination was conducted according to Kirby-Bauer macro-dilution method. […] The tubes were incubated for approximately 24 h at 37° C.±1° C. and then scored for their MBC.

The test system of assay [10] is Staph epidermidis. Description: MBC determination, sub-culturing from MIC tubes. In kind it is cell-based. The note with it: Staphylococcus epidermidis, mupirocin alone, read-out: Mupirocin MBC & MFC.
Excerpt: as §1, §4, §5

Assay [11] relates to VRE. Description: MBC determination, sub-culturing from MIC tubes. The note with it: Enterococcus, value as mupirocin concentration, read-out: Mupirocin MBC & MFC. In kind it is cell-based, Vancomycin-Restistant Enterococcus faecali (ATCC 115992).
Excerpt: as §1, §4, §5

`O=C(OOC(=O)c1ccccc1)c1ccccc1` [BPO, Benzoyl peroxide]: the “BPO in DMSO MIC” value is 0.1875% (0.78%) in assay [1] (BPO alone dissolved in DMSO); 0.1875% (0.78%) in [2] (BPO alone dissolved in DMSO); 0.1875% (0.78%) in [3] (BPO alone dissolved in DMSO); 0.046% (0.19%) in [4] (C. albicans, BPO alone dissolved in DMSO).

For orientation: MIC means the least concentration at which growth counts as inhibited. In the case of `C/C(=C\C(=O)OCCCCCCCCC(=O)O)C[C@@H]1OC[C@H](C[C@@H]2O[C@H]2[C@@H](C)[C@H](C)O)[C@@H](O)[C@H]1O` [Mupirocin], the minimum inhibitory concentration (MIC) in assay [5] is 64 µg/mL; in [1] (Staphylococcus epidermidis, MHB, approx. 24 h at 37° C., value as mupirocin concentration, combination starts at BP 0.0469%) it was 1 µg/mL; in [2] (Staphylococcus aureus, MHB, approx. 24 h at 37° C., value as mupirocin concentration, combination starts at BP 0.0469%), 1 µg/mL; in assay [3] (Enterococcus, MHB, approx. 24 h at 37° C., value as mupirocin concentration, combination starts at BP 0.0469%), 64 µg/mL; in [4] (Candida albicans, C. albicans, approx. 24 h at 37° C., value as mupirocin concentration, combination starts at BP 0.0115%), over 256 µg/mL. Also, the MBC in assay [6] is over 256 µg/mL; in assay [7], 32 µg/mL; in [8], over 256 µg/mL; in [10] it was 32 µg/mL; in assay [11], over 256 µg/mL. Further, the “Efficacy against the yeast C. albicans (in words)” value in [4] (at the concentrations tested) is on record as “ineffective”. Also, the “Cidal activity against Staph organisms (in words)” value in assay [9] is listed as “Cidal activity”.
